Legend:
[1] = system: Cos cells; assay: LDH activity in supernatant of Cos cells transformed with cDNA for Del-1 or its parts (Example 7); assay type: cell-based; details: APtag4 vector, medium replaced 24 hours after gene transfer, measured after further one hour
Excerpt: cDNA for full-length Del-1 (SEQ ID NO: 4) was integrated into an AP expression vector (APtag4) and then introduced into cultured Cos cells. Likewise, cDNA for a part of Del-1 was also integrated into APtag4 and then introduced into cultured Cos cells. As a control, an AP expression vector free from the above cDNA for full-length Del-1 or a part thereof was used. It should be noted that the members each used as a part of Del-1 were EGF-like domains in the full-length Del-1 protein, i.e., EGF1 (E1; cDNA: SEQ ID NO: 26, amino acid sequence: SEQ ID NO: 27), EGF2 (E2; cDNA: SEQ ID NO: 28, amino acid sequence: SEQ ID NO: 29) and EGF3 (E3; cDNA: SEQ ID NO: 6, amino acid sequence: SEQ ID NO: 7), a fusion protein between discoidin I-like domains, i.e., Discoidin1 and Discoidin2 (C1C2; cDNA: SEQ ID NO: 30, amino acid sequence: SEQ ID NO: 31), an amino acid substitution (D136E) mutant of the above full-length Del-1 (Del1m; cDNA: SEQ ID NO: 32, amino acid sequence: SEQ ID NO: 33), as well as an amino acid substitution (D136E) mutant of E3, i.e., E3 D136E (E3m; cDNA: SEQ ID NO: 34, amino acid sequence: SEQ ID NO: 35). […] At 24 hours after gene transfer, the medium in each case was replaced with fresh culture medium and, after further one hour, the supernatant was measured for LDH activity. A cell lysate was prepared for each case and measured for LacZ activity. […]

[2] = system: Cos cells; assay: Recombinant E3 protein added to cultured Cos cells, H33342 staining (Example 8); assay type: cell-based; details: recombinant protein from E. coli, 24 hours after addition
Method: To cultured Cos cells, a recombinant E3 protein produced from transformed E. coli was added. At 24 hours after addition, the cells were stained with H33342 and observed under a phase contrast microscope and a fluorescent microscope.

[3] = system: Cos cells; assay: Concentration dependence of recombinant E3 protein, LDH activity in culture supernatant (Example 10); assay type: cell-based; details: 24 hours after addition
Method: A recombinant E3 protein produced from transformed E. coli was added at different concentrations (0 to 2.0 ng/ml) to cultured Cos cells. At 24 hours after addition, the culture supernatants were each measured for LDH activity.

[4] = system: Cos cells; assay: LDH activity in supernatant of Cos cells transformed with E3, E3 mutants or F IX EGF domain (Example 9); assay type: cell-based; details: APtag4 vector, medium replaced 4 hours after gene transfer, measured after further 24 hours
Excerpt: cDNA for E3 (a part of Del-1) or an amino acid substitution mutant thereof was integrated into an AP expression vector (APtag4) and then introduced into cultured Cos cells. Likewise, cDNA for the EGF domain of blood coagulation factor IX (F IX; cDNA: SEQ ID NO: 24, amino acid sequence: SEQ ID NO: 25) was also integrated into APtag4 and then introduced into cultured Cos cells. As a control, an AP expression vector free from the above cDNAs for E3 and so on was used. It should be noted that the amino acid substitution mutants of E3 used for the above purpose were E3 D136E (cDNA: SEQ ID NO: 34, amino acid sequence: SEQ ID NO: 35), E3 D136N (cDNA: SEQ ID NO: 36, amino acid sequence: SEQ ID NO: 37) and E3 Y141F (cDNA: SEQ ID NO: 38, amino acid sequence: SEQ ID NO: 39). […] At 4 hours after gene transfer, the medium in each case was replaced with fresh culture medium and, after further 24 hours, the supernatant was measured for LDH activity. A cell lysate was prepared for each case and measured for LacZ activity. […]

[5] = system: CRL cells (human melanoma cells); assay: Recombinant E3 protein added to cells, LDH activity in culture supernatant (Example 11); assay type: cell-based; details: CRL cells (adherent), 1 ng/ml or 5 ng/ml, 24 hours after addition
[6] = system: MEL cells (mouse leukemia cells); assay: as above; assay type: cell-based; details: MEL cells (floating), 1 ng/ml or 5 ng/ml, 24 hours after addition
[7] = system: P5 cells (vascular endothelial cell line); assay: as above; assay type: cell-based; details: P5 cells (adherent), 1 ng/ml or 5 ng/ml, 24 hours after addition
[8] = system: SCCKN cells (human oral squamous cell carcinoma-derived cell line); assay: Tumor-transplanted model mice, intratumoral gene transfer, tumor size over time (Example 12); assay type: in vivo; details: nude mice with SCCKN tumors, 10 μg DNA, Day0 to Day7
Method: For measurement of tumor size, the long axis and short axis of each tumor were measured with a ruler and multiplied by each other. In the figure, the tumor size (vertical axis) is expressed as a relative value (mean±SD), assuming that the value obtained at the time of gene transfer is set to 1.
Using tumor-transplanted model mice, a peptide containing the EGF3 domain, which is a part of Del-1, was studied for its therapeutic effect on tumor. More specifically, this peptide was verified as to whether its combined use with the FasL (Fas ligand) protein, whose antitumor effect has already been established, would enhance the antitumor effect when compared to FasL alone. […]
Then, 5×10^6 SCCKN cells (human oral squamous cell carcinoma-derived cell line) were injected under the dorsal skin of nude mice at 5 weeks of age. The mice were then measured over time for their tumor size. […]
The tumor size after gene transfer was measured over time (for 7 days: Day0 to Day7), and the results obtained are shown in FIG. 12.

## E3m: amino acid substitution (D136E) mutant of E3, SEQ ID NO: 35 (CEAEPCRNGGICTELVANYSCECPGEFMGRNCQYK; listed as Mus musculus)
[1]
  increase in LDH activity of supernatant, normalized by LacZ activity: lost

## E3: EGF3 EGF-like domain of Del-1, amino acids 123-157, SEQ ID NO: 7 (CEAEPCRNGGICTDLVANYSCECPGEFMGRNCQYK; listed as Mus musculus)
[2]
  chromosome aggregation (H33342 nuclear staining): chromosomes were aggregated
[3]; 0 to 2.0 ng/ml
  E3 protein concentration effective for apoptosis induction (LDH activity): ≥ 0.4 ng/mL
[3]
  E3 protein concentration above which the effect on apoptosis induction remained unchanged: higher than 1 ng/ml
[4]
  LDH activity of supernatant, normalized by LacZ activity: high LDH activity
[5]
  cytotoxic activity (apoptosis induction), LDH activity: showed cytotoxic activity
[6]
  cytotoxic activity, LDH activity: no cytotoxic activity
[7]
  cytotoxic activity (apoptosis induction), LDH activity: showed cytotoxic activity

## F IX: EGF domain of blood coagulation factor IX, SEQ ID NO: 25 (CESNPCLNGGICKDDISSYECWCQVGFEGRNCEL; listed as Mus musculus)
[4]
  LDH activity of supernatant, normalized by LacZ activity: high LDH activity

B1: E3C1: fusion peptide between EGF3 domain and Discoidin1, amino acids 123 to 319 of mouse Del-1, SEQ ID NO: 42 (protein, listed as Mus musculus)
chain: CEAEPCRNGGICTDLVANYSCECPGEFMGRNCQYKCSGPLGIEGGIISNQQITASSTHRALFGLRKWYPYYARLNKKGLINAWTAAENDRWPWIQINLQRKMRVTGVITQGAKRIGSPEYIKSYKIAYSNDGKTWAMYKVKGTNEEMVFRGNVDNNTPYANSFTPPIKAQYVRLYPQICRRHCTLRMELLGCELSGC
[8]
  antitumor effect (tumor size) of E3C1 cDNA together with FasL cDNA compared with FasL alone: higher antitumor effect
